Assays:
Balb/C mouse ears [1] = experiment: Calcipotriol (MC 903)-induced atopic dermatitis-like inflammation; assay type: in vivo; conditions: for MC 903-induced ear skin inflammation, histological analysis: compared to the control; for MC 903-induced transcription of pro-inflammatory genes (MMP13, COX2, IL-1β, IL-6, IL-10, IL-13 and TSLP): ear extracts, q-RT-PCR, D23; for expression of the TSLP lymphokine in MC 903-treated mouse epidermis: immunohistochemistry, data not shown; for MC 903-induced skin inflammation: topical, 8 days co-treatment with MC 903
Method: To investigate the CpdX anti-inflammatory activity in vivo, Balb/C mouse ears were topically treated with calcipotriol (MC 903, a vitamin D3 analogue), in order to induce an atopic dermatitis (AD)-like inflammation (Li et al., 2006. Proc Natl Acad Sci USA. 103[…].
Mice were treated for 14 days with MC 903, and then for 8 extra days (until D22) with either MC 903 alone (control), MC 903 and Dex, MC 903 and CpdX, MC 903 and CpdX(eA), MC 903 and CpdX(eB), MC 903 and CpdX-D3, MC 903 and CpdX-D3(eA) and MC 903 and CpdX-D3(eB).
At D23, RNA transcripts were extracted from mouse ear skin samples and the transcripts of 7 cytokines (MMP13, COX2, IL-1β, IL-6, IL-10, IL-13 and TSLP) were analyzed by q-RT-PCR. Ear skin was harvested and histological (with H&E staining) and immunohistochemical (with anti-TSLP antibodies) analyses were carried out.

B6 male mice = experiment: Body weight and body composition after three-month treatment; assay type: in vivo, mouse; conditions: s.c. 1 mg/kg daily, 3 months, pDEXA
Method: B6 male mice (8-week-old) were daily subjected for three months to a subcutaneous injection of either vehicle (NaCl 0.9%), Dex, CpdX or CpdX-D3 (1 mg/kg body weight, diluted in vehicle. A pDEXA machine was used to determine the lean mass and fat mass. The statistical significance was calculated through Krustal-Walis test followed by a Dunn's multiple comparison test, *p<0.05; **p<0.01; ***p<0.001.

Balb/C mouse ears [2] = experiment: TPA-induced irritant contact dermatitis-like inflammation; assay type: in vivo; conditions: for TPA-induced ear skin inflammation, histological analysis: compared to the control; for TPA-induced ear skin inflammation, histological analysis / expression of TSLP in TPA-treated mouse epidermis: data not shown; for TPA-induced transcription of pro-inflammatory genes: ear extracts, q-RT-PCR, D10; for expression of TSLP in TPA-treated mouse epidermis: immunochemistry with TSLP-specific antibody; for TPA-induced skin inflammation: topical, 5 days co-treatment with TPA
Method: Balb/C mouse ears were topically treated with TPA to induce an “irritant contact dermatitis-like inflammation”.
Mice were treated for 4 days with TPA, then for 5 extra days (until D9) with either vehicle, TPA alone, TPA and Dex, TPA and CpdX or TPA and CpdX-D3.
At D10, RNA transcripts were extracted from mouse ear skin samples and the transcripts of CCL4, COX2, MMP13, IL-1β, IL-6, TNF-α, TSLP, IL-22 and IL-23 were analyzed by q-RT-PCR. Ear skin was harvested, and histological (with H&E staining) and immunohistochemical (with anti-TSLP antibodies) analyses were carried out.

Balb/C mouse ears [3] = experiment: Aldara-induced psoriasis-like skin inflammation; assay type: in vivo; conditions: for induced expression of the Th17 cytokines IL-17a, IL-17c, IL-17f and IL-22: ear extracts, q-RT-PCR, D10; for Aldara-induced psoriasis-like skin inflammation, H&E histology: mouse, in vivo; for Aldara-induced psoriasis-like skin inflammation: topical co-treatment for the last 5 days, 1 nmole/cm^2
Method: Balb/C mouse ears were topically treated with Aldara® to induce a psoriasis-like skin inflammation (Vinter et al., 2015. Br J Dermatol. 172(2):345-53). Mice were treated for 9 days with Aldara®, including a co-topical treatment for the last 5 days with either ethanol (Vehicle), Dex, CpdX or CpdX-D3.
At D10, RNA transcripts were extracted from mouse ears and IL-17a, IL-17c, IL-17f and IL-22 transcripts were analyzed by q-RT-PCR. Ear skin samples were also harvested for histological analyses (with H&E staining).

mice = experiment: Ovalbumin (OVA)-induced asthma-like allergic lung inflammation; assay type: in vivo, mouse
Method: Glucocorticoids have been (Pearlman et al., 1997. Ann Allergy Asthma Immunol. 78(4):356-62), and are still, widely used in asthma therapy. In order to investigate the possible CpdX anti-inflammatory activity in vivo, mice were sensitized and challenged with either ovalbumin (OVA) or house dust mite (HDM) to induce an asthma-like allergic lung inflammation.
Mice were intraperitoneally sensitized with either 50 μg OVA together with alum or with alum alone on D0, D7 and D14. Mice were then subdivided into three groups, and on D19, D20 and D21, they were intranasally (i.n.) challenged with 10 μg OVA. The first and the second group received intranasally 0.5 mg/kg of body weight of Dex or CpdX respectively, while the third group served as a control.
On D22, the lung allergic inflammation was assessed for each mouse by examination of the bronchoalveolar lavage fluid (BAL). The total BAL cells, eosinophils, neutrophils, macrophages and lymphocytes were counted. RNA transcripts were extracted from lung samples and RNA transcripts of IL-1β, IL-6, IL-4, IL-5, IL-10, IL-13, Eotaxin, CCL4 and TNFα were analyzed by q-RT-PCR. Histological (with H&E staining) and immunohistochemical (with eosinophil-specific and neutrophil-specific antibodies) analyses of lung tissues were also carried out.

For `[2H]C([2H])([2H])Oc1ccc(F)cc1C(C)(C)CC(O)(CNc1ccc2c(c1)COC2=O)C(F)(F)F` (racemic) [CpdX-D3, 5-{4-[2-(methoxy-D3)-5-fluorophenyl]-2-hydroxy-4-methyl-2-(trifluoro-methyl)pentylamino}isobenzofuran-1(3H)-one], the “MC 903-induced ear skin inflammation, histological analysis” value (Balb/C mouse ears [1]) was “decreased”, the “MC 903-induced transcription of pro-inflammatory genes (MMP13, COX2, IL-1β, IL-6, IL-10, IL-13 and TSLP)” value (Balb/C mouse ears [1]) was “repressed, as efficiently as Dex” and the “expression of the TSLP lymphokine in MC 903-treated mouse epidermis” value (Balb/C mouse ears [1]) was “similarly strongly decreased”. The “MC 903-induced skin inflammation” value (Balb/C mouse ears [1]) was “significantly decreased”, the fat mass (B6 male mice) was “commensurate increase” and the “lean percentage / lean mass” value (B6 male mice) was “commensurate increase”. The “TPA-induced ear skin inflammation, histological analysis” value (Balb/C mouse ears [2]) was “significantly decreased”, the “TPA-induced transcription of pro-inflammatory genes” value (Balb/C mouse ears [2]) was “repressed, as efficiently as Dex” and the “expression of TSLP in TPA-treated mouse epidermis” value (Balb/C mouse ears [2]) was “similarly strongly decreased”. For the same molecule, the TPA-induced skin inflammation (Balb/C mouse ears [2]) was “significantly decreased”, the “induced expression of the Th17 cytokines IL-17a, IL-17c, IL-17f and IL-22” value (Balb/C mouse ears [3]) was “similarly reduced” and the “Aldara-induced psoriasis-like skin inflammation, H&E histology” value (Balb/C mouse ears [3]) was “could reduce”. For the same molecule, the “Aldara-induced psoriasis-like skin inflammation” value (Balb/C mouse ears [3]) was “significantly decreased”.

With `COc1ccc(F)cc1C(C)(C)CC(O)(CNc1ccc2c(c1)COC2=O)C(F)(F)F` (racemic) [CpdX, 5-[4-(5-fluoro-2-methoxyphenyl)-2-hydroxy-4-methyl-2-(trifluoromethyl)pentylamino]-isobenzofuran-1(3H)-one] the “MC 903-induced ear skin inflammation, histological analysis” value (Balb/C mouse ears [1]) was “decreased”, the “MC 903-induced transcription of pro-inflammatory genes (MMP13, COX2, IL-1β, IL-6, IL-10, IL-13 and TSLP)” value (Balb/C mouse ears [1]) was “repressed, as efficiently as Dex” and the “expression of the TSLP lymphokine in MC 903-treated mouse epidermis” value (Balb/C mouse ears [1]) was “similarly strongly decreased”. For the same molecule, the “MC 903-induced skin inflammation” value (Balb/C mouse ears [1]) was “significantly decreased”, the fat mass (B6 male mice) was “commensurate increase” and the “lean percentage / lean mass” value (B6 male mice) was “commensurate increase”. The “TPA-induced ear skin inflammation, histological analysis” value (Balb/C mouse ears [2]) was “significantly decreased”, the “TPA-induced transcription of pro-inflammatory genes” value (Balb/C mouse ears [2]) was “repressed, as efficiently as Dex” and the “expression of TSLP in TPA-treated mouse epidermis” value (Balb/C mouse ears [2]) was “similarly strongly decreased”. The TPA-induced skin inflammation (Balb/C mouse ears [2]) was “significantly decreased”, the “induced expression of the Th17 cytokines IL-17a, IL-17c, IL-17f and IL-22” value (Balb/C mouse ears [3]) was “similarly reduced” and the “Aldara-induced psoriasis-like skin inflammation, H&E histology” value (Balb/C mouse ears [3]) was “could reduce”. For the same molecule, the “Aldara-induced psoriasis-like skin inflammation” value (Balb/C mouse ears [3]) was “significantly decreased”, the “eosinophils and neutrophils in lung, immunohistochemistry” value (mice; data not shown) was “similarly decreased” and the “peribronchiolar and perivascular inflammatory cell infiltration” value (mice; histology of lung paraffin sections) was “strongly decreased”. For the same molecule, the “number of macrophages in BAL” value (mice; intranasal 0.5 mg/kg on D19-D21, BAL on D22) was “unchanged”, the “total number of BAL cells, eosinophils, neutrophils and lymphocytes” value (mice; intranasal 0.5 mg/kg on D19-D21, BAL on D22, vs control group) was “significantly decreased” and the “expressions of IL-1β, IL-6, IL-4, IL-5, IL-10, IL-13, Eotaxin, CCL4 and TNFα in lung samples” value (mice; q-RT-PCR, D22) was “significantly and similarly decreased”.

From patent US20190151283A1, “NON-STEROIDAL SELECTIVE GLUCOCORTICOID RECEPTOR AGONISTIC MODULATORS (SEGRAMs) AND USES THEREOF” (ASSOCIATION POUR LA RECHERCHE À L'IGBMC (ARI), priority 2017, published 2019)
